Experiments:
Conditions in all cases: synthetic library passage 3, intravenous, relative to wild-type AAV9
[1] = tested on: brain, spinal cord, and DRG of the NHPs; assay: NGS fold enrichment of synthetic library (passage 3) in NHPs, first cross-species screen; type: in vivo, cynomolgus macaques (Macaca fascicularis)
Outline: (§1)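 Fold enrichment versus wild-type AAV9 was derived by NGS of RT-PCR-amplified RNA from nervous tissue, collected e.g. 28 days after IV dosing […]. The library (passage 3) was given to two NHPs aged 2-4 years and to 6-8-week BALB/c and C57Bl/6 mice (n=3 each).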

brain [2] = assay: NGS fold enrichment of synthetic library (passage 3) in C57Bl/6 mice, first cross-species screen; type: in vivo
Outline: as §1

brain [3] = assay: NGS fold enrichment of synthetic library (passage 3) in BALB/c mice, first cross-species screen; type: in vivo
Outline: as §1

[4] = RNA from spinal cord of NHPs, NGS
[5] = RNA from brain of C57Bl/6 mice, NGS
[6] = RNA from brain of BALB/c mice, NGS

| Sequence | Fold enrichment over AAV9 in the brain of NHPs ([1]; RNA NGS, brain of NHPs) [fold] | Fold enrichment over AAV9 in the spinal cord of NHPs ([1]; RNA NGS, spinal cord of NHPs) [fold] | Fold enrichment over AAV9 in the brain of Mice (C57Bl/6) (brain [2]; RNA NGS, brain of C57Bl/6 mice) [fold] | Fold enrichment over AAV9 in the brain of Mice (BALB/c) (brain [3]; RNA NGS, brain of BALB/c mice) [fold] | Fold enrichment over AAV9 in the brain of NHPs ([1]; RNA from brain of NHPs, NGS) [fold] | Fold enrichment over AAV9 in the spinal cord of NHPs [1, 4] [fold] | Fold enrichment over AAV9 in the brain of Mice (C57Bl/6) (brain [2]; [5]) [fold] | Fold enrichment over AAV9 in the brain of Mice (BALB/c) (brain [3]; [6]) [fold] |
| --- | --- | --- | --- | --- | --- | --- | --- | --- |
| GSGSVSQLGQNQQT | 3.184 | 2.307 | 0.596 | 0.375 |  |  |  |  |
| GSFSMGYGGQNQQT |  |  |  |  | 1.393 | 18.476 | 1.908 | 1.030 |
| GSGQLVLTLQNQQT |  |  |  |  | 1.143 | 0.000 | 0.336 | 0.336 |
| GSGIPQRSGKNQQT | 3.331 | 0.000 | 1.418 | 1.685 |  |  |  |  |
| GSGFPKSTEQNQQT |  |  |  |  | 1.376 | 2.058 | 0.610 | 0.194 |
| GHHTTVQSGQNQQT | 2.177 | 6.245 | 0.851 | 0.755 |  |  |  |  |
| GSGQNQQHSSKATT |  |  |  |  | 1.345 | 12.248 | 1.350 | 1.401 |
| GSGQNQQWDSRRQT |  |  |  |  | 1.321 | 0.531 | 1.059 | 0.825 |
| GSGGGLQHNQNQQT |  |  |  |  | 1.163 | 4.098 | 1.137 | 0.778 |
| GSNGGVGTGQNQQT | 2.130 | 0.788 | 1.191 | 1.087 |  |  |  |  |
| GSGYNQPHLQNQQT | 1.435 | 4.512 | 0.711 | 0.395 |  |  |  |  |
| GSGQNQQTMANGQR |  |  |  |  | 1.394 | 0.216 | 1.169 | 1.230 |
| GSGQNQQSNWITKT | 2.711 | 0.000 | 0.540 | 0.634 |  |  |  |  |
| GSRTTQDIGQNQQT |  |  |  |  | 1.247 | 0.000 | 0.685 | 0.280 |
